Results: patent US20240262826A1, “WILD TYPE KIT INHIBITORS” (Blueprint Medicines Corporation, priority 2022, published 2024)

The molecules below were run against wild type c-kit (Homo sapiens (Human), UniProt P10721) (assay: PathScan phospho c-kit (Tyr719) sandwich ELISA in SCF-stimulated M-07e cells (pKIT assay)). Conditions: ELISA assay (values not marked *).
Type: cell-based
Description: The ability of compounds of the disclosure (described herein as test compounds) to inhibit autophosphorylation of wild type c-kit was measures using either a PathScan phospho c-kit (Tyr719) sandwich ELISA (CST #7298) or a Phospho c-Kit (Tyr721) Assay Whole Cell Lysate Kit (MSD: 515DPD/catalog number K15119D-2).
For the PathScan phospho c-kit (Tyr719) sandwich ELISA: M-07e cells were resuspended at 2×10^6 cells/mL in phenol red free, serum-free, GM-CSF-free Iscove's Modified Dulbecco's Medium (IMDM) media with 1% Penicillin-Streptomycin. The cells were then dispensed into the wells of a U-bottom, 96-well plate at 50 uL per well using a multichannel pipet. The plate was allowed to incubate at 37° C. in a humidified tissue culture incubator for 4 hours.
After 4 hours of incubation, each well was dosed with 6.25 uL of test compound at a final DMSO concentration of 0.25% for 60 min at 37° C. to generate an 8-point dose concentration series of test compounds in duplicate. Cells were then incubated for 1 hour at 37° C. in a humidified tissue culture incubator. Next, human SCF at 500 ng/mL was added to the appropriate wells at 6.25 uL/well and the plate was shaken at 450 rpm at room temperature for 10 minutes. AlphaLISA 5× Lysis Buffer supplemented with 1× protease and phosphatase inhibitor was then added at 16 uL/well. The plate was sealed with an adherent cover and shaken at 4° C. at 600 rpm for 30 minutes. After this period of lysis, the plate was stored at −80° C.
When the 96-well plate containing M07e lysates was ready to be processed, the plate was brought to room temperature and 40 μl from each well was transferred to the wells of a PathScan Phospho-c-Kit (Tyr719) Sandwich ELISA plate (CST, Catalog #7298). The ELISA plate was sealed with an adherent cover and incubated for 2 hours at 37° C. Next, the wells were washed 4 times with the provided 1× Wash Buffer, and 100 uL/well of reconstituted Detection Antibody was added to each well, the plate sealed with an adherent cover, and incubated at 37° C. for 1 hour. The wash procedure was repeated and 100 uL/well of reconstituted HRP-Linked secondary antibody was added. The plate was sealed with an adherent cover and incubated at 37° C. for 1 hour. The wash procedure was repeated and 100 uL/well of TMB Substrate was added. The plate was incubated for 10 minutes at room temperature or until the positive reaction elicited a blue color in the appropriate wells. 100 uL/well of STOP solution was added and shaken gently for a few seconds a microplate reader or conventional spectrophotometer e.g., a Perkin Elmer Envision multimode plate reader, part #2105-0010.
An IC50 was calculated using a 4-parameter logistic nonlinear regression.

Chain of wild type c-kit (P10721 26-976): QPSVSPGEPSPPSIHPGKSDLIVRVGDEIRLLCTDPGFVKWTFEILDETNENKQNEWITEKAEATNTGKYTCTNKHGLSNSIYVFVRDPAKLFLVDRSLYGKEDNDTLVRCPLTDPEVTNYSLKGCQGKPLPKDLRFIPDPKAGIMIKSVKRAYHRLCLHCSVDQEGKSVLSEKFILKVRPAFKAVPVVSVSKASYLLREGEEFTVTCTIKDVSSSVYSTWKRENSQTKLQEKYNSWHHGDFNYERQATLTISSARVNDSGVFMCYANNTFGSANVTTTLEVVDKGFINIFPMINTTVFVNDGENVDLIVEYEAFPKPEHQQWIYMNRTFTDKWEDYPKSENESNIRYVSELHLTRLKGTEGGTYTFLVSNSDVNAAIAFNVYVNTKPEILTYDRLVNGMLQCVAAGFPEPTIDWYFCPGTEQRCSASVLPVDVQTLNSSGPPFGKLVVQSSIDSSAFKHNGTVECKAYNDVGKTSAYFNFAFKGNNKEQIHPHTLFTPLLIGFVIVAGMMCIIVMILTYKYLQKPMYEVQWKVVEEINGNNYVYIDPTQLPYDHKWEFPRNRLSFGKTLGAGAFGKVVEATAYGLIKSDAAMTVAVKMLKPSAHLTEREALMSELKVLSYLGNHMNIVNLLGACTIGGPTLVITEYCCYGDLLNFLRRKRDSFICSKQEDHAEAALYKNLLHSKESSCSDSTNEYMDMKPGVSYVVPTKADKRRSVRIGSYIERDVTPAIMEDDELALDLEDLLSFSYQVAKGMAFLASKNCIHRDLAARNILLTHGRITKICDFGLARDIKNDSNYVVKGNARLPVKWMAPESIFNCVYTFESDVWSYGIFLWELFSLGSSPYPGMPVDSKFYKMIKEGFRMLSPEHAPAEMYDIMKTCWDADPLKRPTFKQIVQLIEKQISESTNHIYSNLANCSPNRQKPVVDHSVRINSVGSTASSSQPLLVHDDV

Row | IC50 [nM] | Structure (SMILES)
1 | 0.2 | CCn1nnc(-c2cc(NC(=O)c3cnn4ccc(-c5cn(C[C@H](O)COC)nc5C)cc34)c(Cl)cc2F)n1 [Example 282, (S)—N-(2-chloro-5-(2-ethyl-2H-tetrazol-5-yl)-4-fluorophenyl)-5-(1-(2-hydroxy-3-methoxypropyl)-3-methyl-1H-pyrazol-4-yl)pyrazolo[1,5-a]pyridine-3-carboxamide]
2 | 0.5 | Cc1cc(F)c(-c2nnn(C3CC3)n2)cc1NC(=O)c1cnn2cc(F)c(-c3cn(CC(C)(C)O)nc3C)cc12 [Example 247, N-(5-(2-cyclopropyl-2H-tetrazol-5-yl)-4-fluoro-2-methylphenyl)-6-fluoro-5-(1-(2-hydroxy-2-methylpropyl)-3-methyl-1H-pyrazol-4-yl)pyrazolo[1,5-a]pyridine-3-carboxamide]
3 | 30.2 | CCNc1ccn2ncc(C(=O)Nc3cc(-c4nnn(C5CN(C(=O)OC)C5)n4)ccc3C)c2c1 [Example 127, methyl 3-(5-(3-(5-(ethylamino)pyrazolo[1,5-a]pyridine-3-carboxamido)-4-methylphenyl)-2H-tetrazol-2-yl)azetidine-1-carboxylate]
4 | 32.4 | COC(=O)N1CC(n2nnc(-c3ccc(C)c(NC(=O)c4cnn5ccc(NC[C@H](C)OC)cc45)c3)n2)C1 [Example 134, methyl (S)-3-(5-(3-(5-((2-methoxypropyl)amino)pyrazolo[1,5-a]pyridine-3-carboxamido)-4-methylphenyl)-2H-tetrazol-2-yl)azetidine-1-carboxylate]
5 | 34.7 | CCNc1ccn2ncc(C(=O)Nc3cc(-c4nnn(C5CN(C(=O)OCC)C5)n4)ccc3C)c2c1 [Example 130, ethyl 3-(5-(3-(5-(ethylamino)pyrazolo[1,5-a]pyridine-3-carboxamido)-4-methylphenyl)-2H-tetrazol-2-yl)azetidine-1-carboxylate]
6 | 0.3 | Cc1cc(F)c(-c2nnn(C3CC3)n2)cc1NC(=O)c1cnn2ccc(-c3cn(C[C@@H](C)O)nc3C)cc12 [Example 255, (R)-N-(5-(2-cyclopropyl-2H-tetrazol-5-yl)-4-fluoro-2-methylphenyl)-5-(1-(2-hydroxypropyl)-3-methyl-1H-pyrazol-4-yl)pyrazolo[1,5-a]pyridine-3-carboxamide]
7 | 3.5 | COCCNc1ccn2ncc(C(=O)Nc3cc(-c4nnn(C5CC(F)(F)C5)n4)c(F)cc3C)c2c1 [Example 105, N-(5-(2-(3,3-difluorocyclobutyl)-2H-tetrazol-5-yl)-4-fluoro-2-methylphenyl)-5-((2-methoxyethyl)amino)pyrazolo[1,5-a]pyridine-3-carboxamide]
8 | 0.3 | Cc1ccc(-c2nnn(C3CC3)n2)cc1NC(=O)c1cnn2ccc(-c3cn([C@H](C)[C@H](C)O)nc3C)cc12 (single isomer, unassigned) [Example 269, N-(5-(2-cyclopropyl-2H-tetrazol-5-yl)-2-methylphenyl)-5-(1-((2R,3S)-3-hydroxybutan-2-yl)-3-methyl-1H-pyrazol-4-yl)pyrazolo[1,5-a]pyridine-3-carboxamide or N-(5-(2-cyclopropyl-2H-tetrazol-5-yl)-2-methylphenyl)-5-(1-((2S,3R)-3-hydroxybutan-2-yl)-3-methyl-1H-pyrazol-4-yl)pyrazolo[1,5-a]pyridine-3-carboxamide]
9 | 60.7 | CCOC(=O)N1CC(n2nnc(-c3ccc(C)c(NC(=O)c4cnn5ccc(N6CCOCC6)cc45)c3)n2)C1 [Example 77, ethyl 3-(5-(4-methyl-3-(5-morpholinopyrazolo[1,5-a]pyridine-3-carboxamido)phenyl)-2H-tetrazol-2-yl)azetidine-1-carboxylate]
10 | 0.4 | Cc1cc(F)c(-c2nnn(C3CC3)n2)cc1NC(=O)c1cnn2ccc(-c3c(C)nn(C[C@H](C)O)c3C)cc12 [Example 254, (S)-N-(5-(2-cyclopropyl-2H-tetrazol-5-yl)-4-fluoro-2-methylphenyl)-5-(1-(2-hydroxypropyl)-3,5-dimethyl-1H-pyrazol-4-yl)pyrazolo[1,5-a]pyridine-3-carboxamide]
11 | 8.5 | Cc1cc(C)c(-c2nnn(CCC(C)(O)C(F)(F)F)n2)cc1NC(=O)c1cnn2ccccc12 (centres unmarked) [Example 36, N-(2,4-dimethyl-5-(2-(4,4,4-trifluoro-3-hydroxy-3-methylbutyl)-2H-tetrazol-5-yl)phenyl)pyrazolo[1,5-a]pyridine-3-carboxamide]
12 | 2.4 | Cc1ccc(-c2nnn(C3CC(F)(F)C3)n2)cc1NC(=O)c1cnn2ccc(N3CC(CO)C3)cc12 [Example 103, N-(5-(2-(3,3-difluorocyclobutyl)-2H-tetrazol-5-yl)-2-methylphenyl)-5-(3-(hydroxymethyl)azetidin-1-yl)pyrazolo[1,5-a]pyridine-3-carboxamide]
13 | 4.8 | Cc1ccc(-c2nnn(CC3CC4(CCC4)CO3)n2)cc1NC(=O)c1cnn2ccccc12 (centres unmarked) [Example 9, N-(5-(2-((6-oxaspiro[3.4]octan-7-yl)methyl)-2H-tetrazol-5-yl)-2-methylphenyl)pyrazolo[1,5-a]pyridine-3-carboxamide]
14 | 22.1 | Cc1cc(C)c(-c2nnn(C3CC(F)(F)C3)n2)cc1NC(=O)c1cnn2ccc(N3CCOCC3)cc12 [Example 156, N-(5-(2-(3,3-difluorocyclobutyl)-2H-tetrazol-5-yl)-2,4-dimethylphenyl)-5-morpholinopyrazolo[1,5-a]pyridine-3-carboxamide]
15 | 70.2 | COCCNc1ccn2ncc(C(=O)Nc3cc(-c4nnn(C5CN(C(=O)OC)C5)n4)ccc3C)c2c1C [Example 45, methyl 3-(5-(3-(5-((2-methoxyethyl)amino)-4-methylpyrazolo[1,5-a]pyridine-3-carboxamido)-4-methylphenyl)-2H-tetrazol-2-yl)azetidine-1-carboxylate]
16 | 10.5 | O=C(Nc1cc(-c2nnn(C3CC(F)(F)C3)n2)c(F)cc1Cl)c1cnn2ccc(N3CCOCC3)cc12 [Example 63, N-(2-chloro-5-(2-(3,3-difluorocyclobutyl)-2H-tetrazol-5-yl)-4-fluorophenyl)-5-morpholinopyrazolo[1,5-a]pyridine-3-carboxamide]
17 | 0.5 | Cc1cc(Cl)c(-c2nnn(C3CC3)n2)cc1NC(=O)c1cnn2ccc(-c3cnn(CC(C)(C)O)c3)cc12 [Example 226, N-(4-chloro-5-(2-cyclopropyl-2H-tetrazol-5-yl)-2-methylphenyl)-5-(1-(2-hydroxy-2-methylpropyl)-1H-pyrazol-4-yl)pyrazolo[1,5-a]pyridine-3-carboxamide]
18 | 1.1 | Cc1ccc(-c2nnn(C3CC3)n2)cc1NC(=O)c1cnn2ccc(-c3cnn(CCN4CCN(C)CC4)c3)cc12 [Example 219, N-(5-(2-cyclopropyl-2H-tetrazol-5-yl)-2-methylphenyl)-5-(1-(2-(4-methylpiperazin-1-yl)ethyl)-1H-pyrazol-4-yl)pyrazolo[1,5-a]pyridine-3-carboxamide]
19 | 9.1 | Cc1ccc(-c2nnn(C3CN(CC(F)(F)F)C3)n2)cc1NC(=O)c1cnn2ccccc12 [Example 196, N-(2-methyl-5-(2-(1-(2,2,2-trifluoroethyl)azetidin-3-yl)-2H-tetrazol-5-yl)phenyl)pyrazolo[1,5-a]pyridine-3-carboxamide]
20 | 23.4 | COC(=O)N1CC(n2nnc(-c3cc(NC(=O)c4cnn5cc(OCCO)ccc45)c(C)cc3F)n2)C1 [Example 223, methyl 3-(5-(2-fluoro-5-(6-(2-hydroxyethoxy)pyrazolo[1,5-a]pyridine-3-carboxamido)-4-methylphenyl)-2H-tetrazol-2-yl)azetidine-1-carboxylate]
21 | 17.1 | COC(=O)N1CC(n2nnc(-c3ccc(C)c(NC(=O)c4cnn5ccc(NCCO)cc45)c3)n2)C1 [Example 142, Methyl 3-(5-(3-(5-((2-hydroxyethyl)amino)pyrazolo[1,5-a]pyridine-3-carboxamido)-4-methylphenyl)-2H-tetrazol-2-yl)azetidine-1-carboxylate]
22 | 37.7 | Cc1cc(C2CC2)c(-c2nnn(C3CC(F)(F)C3)n2)cc1NC(=O)c1cnn2ccc(N3CCOCC3)cc12 [Example 166, N-(4-cyclopropyl-5-(2-(3,3-difluorocyclobutyl)-2H-tetrazol-5-yl)-2-methylphenyl)-5-morpholinopyrazolo[1,5-a]pyridine-3-carboxamide]
23 | 46.6 | COC(=O)N1CC(n2nnc(-c3ccc(C)c(NC(=O)c4cnn5ccc(N6CCN(CC(F)F)CC6)cc45)c3)n2)C1 [Example 73, methyl 3-(5-(3-(5-(4-(2,2-difluoroethyl)piperazin-1-yl)pyrazolo[1,5-a]pyridine-3-carboxamido)-4-methylphenyl)-2H-tetrazol-2-yl)azetidine-1-carboxylate]
